Source: patent publication US20100255020A1, “METHOD FOR INDUCING CYTOTOXIC T-CELLS, CYTOTOXIC T-CELL INDUCERS, AND PHARMACEUTICAL COMPOSITIONS AND VACCINES EMPLOYING THEM” (NEC CORPORATION, priority 2007, published 2010)
Where no end group is shown, it is not given here.

Experiments:
HLA-A*2402 molecule = HLA-A*2402 molecule (Homo sapiens, UniProt P04439, D101N/D140Y/D185E/E176V/E190D/F33S/G103R/G107R/I119L/I121M/I306V/K335N/L105A/L180Q/L300P/N151K/N90K/Q86E/Q94H/R106L/R138H/R89G/T104I/T345S/V100E/W191G/Y123F); assay: Peptide binding to HLA-A*2402 molecule on C1R-A24 cells (flow cytometry, Kd); settings: HLA-A*2402, C1R-A24 cells; read-out: Binding assay data (−log Kd) (converted)
Protocol: The ability of a peptide to bind to an HLA-A*2402 molecule, which is a product of the HLA-A*2402 gene, was measured using C1R-A24 cells expressing the HLA-A*2402 molecule (cells generated by Professor Masafumi Takiguchi, Kumamoto University being supplied with permission by Associate Professor Masaki Yasukawa, Ehime University).
C1R-A24 cells were first exposed to acidic conditions at a pH of 3.3 for 30 seconds, thus dissociating and removing a β2m light chain, which is associated with HLA class I molecules in common, and an endogenous peptide originally bound to the HLA-A*2402 molecule. After neutralization, purified β2m was added to C1R-A24 cells, the obtained product was added to serial dilutions of a peptide, and incubated on ice for 4 hours. […]
Subsequently, the number of MHC-pep complexes per C1R-A24 cell (proportional to the intensity of fluorescence of the above-mentioned fluorescent antibody) was quantitatively measured using a FACScan fluorescence-activated flow cytometer (Becton Dickinson Biosciences). A dissociation constant Kd value between the HLA-A*2402 molecule and the peptide was calculated from the average intensity of fluorescence per cell by a method published in the literature (Udaka et al., Immunogenetics, 51, 816-828, 2000).

[1] = system: peptide-loaded target cells (C1R-A24, RA24, T2); assay: 51Cr release assay of PBMC killing activity against peptide-loaded target cells; format: cell-based, human
Protocol: Target cells were labeled with ^51Cr and loaded with HLA-binding peptide of interest. 5,000 or 10,000 cells/well of target cells were placed in 96-well U-bottom plate, and then, PBMCs having been stimulated twice in vitro were added thereto as a responder. Cells were incubated at 37° C. for 5 hours and ^51Cr released from the damaged cells during the incubation was measured, and % specific lysis was calculated. As target cells C1R-A24 or RA24 cells were used as a target when reactivity to HLA-A*2402 binding peptides were examined, and T2 cells were used as a target and incubation was carried out for 2 hours after addition of responder cells. Percent specific lysis was calculated as follows. % specific lysis=(test release-spontaneous release)/(total release-spontaneous release)×100.

HLA-A*0201 molecule = HLA-A*0201 molecule (Homo sapiens, UniProt P04439, D140Y/D185E/D98H/E176V/E277Q/G131W/G231S/I119V/I121R/I166T/I218V/L300P/L318F/N151K/N90K/P208A/P217A/Q86G/Q94H/R138H/R169H/T345S); assay: Peptide binding to HLA-A*0201 molecule on JY cells (flow cytometry, Kd); settings: HLA-A*0201, JY cells
Protocol: The ability of a peptide to bind to an HLA-A*0201 molecule, which is a product of the HLA-A*0201 gene, was measured using strain JY cells expressing the HLA-A*0201 molecule.
JY cells were first exposed to acidic conditions at a pH of 3.8 for 30 seconds, thus dissociating and removing a β2m light chain and an endogenous peptide, which were noncovalently associated with the HLA-A* 0201 molecule. After neutralization, a reconstitution experiment was carried out.
The above-mentioned JY cells and the purified […] were added to serial dilutions of peptide for which the binding ability needs to be measured, and incubation was carried out on ice for 4 hours. HLA-A*0201 molecules that had reassociated up to this time point were stained using the fluorescently-labeled monoclonal antibody BB7.2, a conformation dependent monoclonal Ab specific for an assembled form of HLA-A*0201 molecule.
Subsequently, the amount of fluorescence per cell was measured using a flow cytometer and a dissociation constant Kd value was calculated by a method published in the literature (Udaka et al., Immunogenetics, 51, 816-828, 2000).

ALLPAVPSL [W10]
Kd (HLA-A*2402 molecule): 0.692 nM
Peptide-reactive cytolytic cells in PBMCs of patients ([1]; HLA-A*0201 binding peptides, T2 targets): contain cytolytic cells that recognize
Peptide-reactive cytolytic cells in PBMCs of patients ([1]; HLA-A*2402 binding peptides, FIG. 9a and b): cytolytic cells include those reactive
Binding assay data (−log Kd) (HLA-A*0201 molecule): 7.84
